This note sets out measurements from PMC11899342, “Novel Triazeneindole Antibiotics: Synthesis and Hit-to-Lead Optimization” (International Journal of Molecular Sciences, 2025).

The test system of data set [1] is human embryonic fibroblasts (HEFs). The data set is described as follows: MTT cytotoxicity on human embryonic fibroblasts. The note with it: Homo sapiens, Fibroblast, 24 h, ND = non-toxic in tested concentrations (up to 50 mg/L). In kind it is cell-based. On the procedure:
The primary screening of 22 substances was performed on human embryonic fibroblasts (HEFs). […] The HepG2 cell line was obtained from the American Type Culture Collection (ATCC cat. # HB-8065). The primary HEF cells (normal human embryonic fibroblasts) were derived from human embryonic stem cells. The cells were cultured in DMEM/F12 (1:1) medium containing 10% fetal bovine serum (Invitrogen, Carlsbad, CA, USA) at 37 °C and 5% CO2, according to standard mammalian tissue culture protocols and sterile technique. […] The incubation time with the substance was 24 h for all substances and cell lines. Cell detachment by trypsin, centrifugation, and counting in a hemocytometer were performed 16 h before the addition of the substance. For correct counting of the HepG2 cells, the cell suspension was passed through a syringe needle to get rid of cell aggregates. The cells were placed in the wells of a 96-well plate. The number of cells was selected according to the properties of the cell line and the final optical density in the experiment. Fibroblasts and hepatocytes were used in the amount of 10 thousand cells per well in 100 μL of DMEM/F12 medium supplemented with 10% fetal bovine serum. The substances were added to 100 µL of medium in the wells so that the final concentrations were 50, 25, 12.5, 6.25, 3.125, and 1.62 mg/L. The final well volume was 200 µL. The medium containing fetal bovine serum, without added substances, was used as a negative control. After 24 h, excessive amounts of medium were discarded. A total of 30 µL of MTT solution (5 mg/mL in PBS) was added to each well. After the precipitation of formazan crystals (3 h incubation), they were dissolved using 100 μL of dimethyl sulfoxide. The optical density (OD) was measured at 570 nm using a microplate reader (Eppendorf). For every condition, the cell viabilities were assessed in at least three independent experiments for every cell culture. Cell survival was calculated using the following formula:(OD of treated cells − OD blank)/(OD of control cells − OD blank) × 100%, where OD blank represents the OD values in wells without cells but with the addition of the MTT and DMSO solutions. The results were presented in the form of cytotoxicity curves, and the graphs were also plotted in a Microsoft Excel program; the calculation of the IC50 half-maximal inhibition concentration values was performed in a GraphPad Prism 6.0 (GraphPad Software Inc., San Diego, CA, USA) program, based on the equations of the cytotoxicity curves.

The subject of a further data set is MRSA clinical isolates. In words: MIC by broth microdilution against multidrug-resistant MRSA clinical isolates. In kind it is cell-based, Staphylococcus aureus. The note with it: 8 multidrug-resistant MRSA clinical isolates; tested 0.125-1 mg/L. How it is done: Clinical MRSA isolates with multidrug resistance were obtained from the collection of the Research Institute of Antimicrobial Chemotherapy, Smolensk State Medical Academy.
The MICs were determined using a broth microdilution method according to [42]. Briefly, serial dilutions of the tested compounds in 50 µL of Mueller Hinton broth (BD) were prepared in 96-well microplates. The antibiotics vancomycin and linezolid (Sigma-Aldrich, St. Louis, MO, USA) were used as a positive control. Bacterial suspensions of the tested MRSA strains were prepared in the Mueller Hinton broth (BD) with a concentration 1 × 10^6 CFU/mL, and then 50 µL aliquots were added to the prepared microplates. The final concentrations of the antibiotics in the wells were 1, 0.5, 0.25, and 0.125 mg/L, for the tested compounds, and 2 mg/L for vancomycin and linezolid. Negative control (lack of bacterial cells) and growth control (lack of compound) wells were included in all plates. The microplates were incubated at 37 °C for 18 h. The growth was assessed visually after incubation, and the MIC was assumed as the lowest compound concentration at which a noticeable growth of the microorganisms was inhibited (no visible growth). All experiments were conducted in triplicate.
Background: Broth dilution looks for growth in wells or tubes with falling amounts of substance.

Data set [2] can be described thus: Solubility in water by HPLC. The data set is classed as physicochemical. The note with it: water, kinetic from dmso stock. On the procedure:
The solubility of the compounds in water was assessed using HPLC analysis. Two 1.0 mg portions of the test compounds were dissolved in 10 μL of dimethyl sulfoxide; 1.0 mL of acetonitrile was added to one sample (standard), and 1.0 mL of water was added to the second sample (tested sample). Both vials were mixed in a shaker for 5 min, then centrifuged at 10,000 rpm for 5 min. The supernatants were collected and analyzed using Agilent 1290 Infinity (Agilent Technologies, Santa Clara, CA, USA) with a YMC-Triart C18 50 × 2.0 mm, 1.9 μm column. The concentration of the test compound in water was determined by comparing the peak areas of the standard (concentration 1.0 mg/mL) and the tested sample.

The subject of another data set is Caco-2 cells. The data set is described as follows: Caco-2 cell monolayer permeability. In kind it is in vitro ADME, human. How it is done:
The MultiScreen Caco-2 (ATCC cat. # HTB-37) test system (Millipore, St. Charles, MO, USA) was used to study the transport through a cell monolayer, according to the manufacturer’s instructions. Briefly, a study of transport from the apical membrane to the basolateral (A-B) area and in the opposite direction (B-A) was carried out on a 21-day culture of Caco-2 at a 1 µM concentration of the tested compound for 2 h. Monolayer integrity was verified by measuring electrical resistance (TEER) using a Millicell-ERS instrument. A TEER value of at least 3 KOhm/well was determined to be acceptable.
(Caco-2 cells form a polarised layer with tight junctions and transporters.)

Setting [3] is: read-out: Solubility in water, mass concentration.
Where [4] appears, read: read-out: Solubility in water, molar concentration.
The mark [5] stands for this setting: Caco-2, first value: A-B / apical.

Converted amounts (≈) assume the structure as drawn. Where two headings read alike, the source gives them in different places. A value given as a limit tells only on which side of the number the result lay.

`CCOC(=O)c1[nH]c2ccccc2c1/N=N/N(C)Cc1ccccc1` [BX-SI003, Ethyl (E)-3-(3-benzyl-3-methyltriaz-1-en-1-yl)-1H-indole-2-carboxylate]: the half-maximal inhibitory concentration (IC50) (usually the concentration needed to halve the response being measured) in data set [1] was found to be 3 µg/mL (≈ 8.92 µM). In addition, the “MIC Range Against 8 MRSA Strains” value in the data set on MRSA clinical isolates was determined as 1 mg/L (≈ 2.97 µM). For the same compound, the solubility at 5 min in data set [2] (setting [3]) was found to be 29.6 µg/mL; in data set [2] (setting [4]), 90 µM.

In data set [1], `CCOC(=O)c1[nH]c2ccccc2c1/N=N/N1CCCN(C)CC1` [BX-SI005, Ethyl (E)-3-((4-methyl-1,4-diazepan-1-yl)diazenyl)-1H-indole-2-carboxylate] displayed a half-inhibitory concentration (IC50) of 12 µg/mL (≈ 36.4 µM). Moreover, the “MIC Range Against 8 MRSA Strains” value with MRSA clinical isolates was determined as 1 mg/L (≈ 3.04 µM). The solubility at 5 min amounted to 70.2 µg/mL in data set [2] (setting [3]) and 210 µM in data set [2] (setting [4]).

Compound `CCOC(=O)c1[nH]c2ccccc2c1/N=N/N(C)CCN(C)C` [BX-SI010, Ethyl (E)-3-(3-(2-(dimethylamino)ethyl)-3-methyltriaz-1-en-1-yl)-1H-indole-2-carboxylate] displayed an IC50 in data set [1] of 19 µg/mL (≈ 59.9 µM). Also, the “MIC Range Against 8 MRSA Strains” value with MRSA clinical isolates worked out at 1 mg/L (≈ 3.15 µM). Also, the solubility at 5 min in data set [2] (setting [3]) stood at 475 µg/mL; in data set [2] (setting [4]) it was 1490 µM.

In the case of `CCOC(=O)c1[nH]c2ccccc2c1/N=N/N1CCC(CCOC)CC1` [BX-SI016, Ethyl (E)-3-((4-(2-methoxyethyl)piperidin-1-yl)diazenyl)-1H-indole-2-carboxylate], in data set [1], the IC50 turned out to be 34 µg/mL (≈ 94.9 µM). Further, the “MIC Range Against 8 MRSA Strains” value against MRSA clinical isolates is listed as over 1 mg/L.

Turning to `CCOC(=O)c1c(/N=N/N(CC)CC)c2cccnc2n1C` [BX-SI019, Ethyl (E)-3-(3,3-diethyltriaz-1-en-1-yl)-1-methyl-1H-pyrrolo[2,3-b]pyridine-2-carboxylate], the “MIC Range Against 8 MRSA Strains” value against MRSA clinical isolates is recorded as over 1 mg/L. Moreover, the solubility at 5 min was 88.2 µg/mL in data set [2] (setting [3]) and 290 µM in data set [2] (setting [4]).

Consider `CCOC(=O)c1c(/N=N/N(C)Cc2ccccc2)c2cccnc2n1C` [BX-SI020, Ethyl (E)-3-(3-benzyl-3-methyltriaz-1-en-1-yl)-1-methyl-1H-pyrrolo[2,3-b]pyridine-2-carboxylate], for which the “MIC Range Against 8 MRSA Strains” value with MRSA clinical isolates is recorded as over 1 mg/L. The solubility at 5 min in data set [2] (setting [3]) came to 7.53 µg/mL; in data set [2] (setting [4]), 20 µM.

On to `CCOC(=O)c1c(/N=N/N2CCN(Cc3ccccc3)CC2)c2cccnc2n1C` [BX-SI021, Ethyl (E)-3-((4-benzylpiperazin-1-yl)diazenyl)-1-methyl-1H-pyrrolo[2,3-b]pyridine-2-carboxylate], for which the “MIC Range Against 8 MRSA Strains” value with MRSA clinical isolates is over 1 mg/L. Moreover, the solubility at 5 min in data set [2] (setting [3]) turned out to be 12.5 µg/mL; in data set [2] (setting [4]) it was 10 µM.

Regarding `CCOC(=O)c1c(/N=N/N(C)CCN(C)C)c2cccnc2n1C` [BX-SI027, Ethyl (E)-3-(3-(2-(dimethylamino)ethyl)-3-methyltriaz-1-en-1-yl)-1-methyl-1H-pyrrolo[2,3-b]pyridine-2-carboxylate], in the data set with MRSA clinical isolates, the “MIC Range Against 8 MRSA Strains” value is over 1 mg/L. The solubility at 5 min in data set [2] (setting [3]) is 927 µg/mL; in data set [2] (setting [4]), 2780 µM.

As to `CCOC(=O)c1[nH]c2cc(F)ccc2c1/N=N/N(CC)CC` [BX-SI036, Ethyl (E)-3-(3,3-diethyltriaz-1-en-1-yl)-6-fluoro-1H-indole-2-carboxylate], the “MIC Range Against 8 MRSA Strains” value against MRSA clinical isolates was over 1 mg/L. For the same compound, the solubility at 5 min is 10 µg/mL in data set [2] (setting [3]) and 30 µM in data set [2] (setting [4]).

`CCOC(=O)c1[nH]c2cc(F)ccc2c1/N=N/N(C)Cc1ccccc1` [BX-SI037, Ethyl (E)-3-(3-benzyl-3-methyltriaz-1-en-1-yl)-6-fluoro-1H-indole-2-carboxylate]: in the data set with MRSA clinical isolates, the “MIC Range Against 8 MRSA Strains” value worked out at 1 mg/L (≈ 2.82 µM). In addition, the values for the solubility at 5 min in data set [2] (setting [3]) and in data set [2] (setting [4]) were 18.4 µg/mL and 50 µM, respectively.

Turning to `CCOC(=O)c1[nH]c2cc(F)ccc2c1/N=N/N1CCN(Cc2ccccc2)CC1` [BX-SI038, Ethyl (E)-3-((4-benzylpiperazin-1-yl)diazenyl)-6-fluoro-1H-indole-2-carboxylate], in the data set with MRSA clinical isolates, the “MIC Range Against 8 MRSA Strains” value is given as over 1 mg/L. In addition, the solubility at 5 min came to 0.383 µg/mL in data set [2] (setting [3]) and 1 µM in data set [2] (setting [4]).

Consider `CCOC(=O)c1[nH]c2cc(F)ccc2c1/N=N/N1CCOCC1` [BX-SI040, Ethyl (E)-6-fluoro-3-(morpholinodiazenyl)-1H-indole-2-carboxylate], for which, in data set [1], it took 12 µg/mL (≈ 37.5 µM) to reach half-maximal inhibition (IC50). Moreover, the “MIC Range Against 8 MRSA Strains” value in the data set with MRSA clinical isolates came to 1 mg/L (≈ 3.12 µM). The solubility at 5 min in data set [2] (setting [3]) came out at 4.48 µg/mL; in data set [2] (setting [4]) it was 14 µM.

In data set [1], `CCOC(=O)c1[nH]c2ccccc2c1/N=N/N1CCC(C)CC1` [BX-SI055, Ethyl (E)-3-((4-methylpiperidin-1-yl)diazenyl)-1H-indole-2-carboxylate] came in with an IC50 of 16 µg/mL (≈ 50.9 µM). In addition, the “MIC Range Against 8 MRSA Strains” value in the data set with MRSA clinical isolates is listed as over 1 mg/L. Moreover, the figures for the solubility at 5 min in data set [2] (setting [3]) and in data set [2] (setting [4]) were 1.22 µg/mL and 4 µM, respectively.

In the case of `CCOC(=O)c1[nH]c2ncccc2c1/N=N/N1CCN(C)CC1` [BX-SI057, Ethyl (E)-3-((4-methylpiperazin-1-yl)diazenyl)-1H-pyrrolo[2,3-b]pyridine-2-carboxylate], the IC50 in data set [1] turned out to be 3 µg/mL (≈ 9.48 µM). In addition, the “MIC Range Against 8 MRSA Strains” value in the data set with MRSA clinical isolates lay within 0.5 to 1 mg/L. In addition, the solubility at 5 min was determined as 16.7 µg/mL in data set [2] (setting [3]) and 53 µM in data set [2] (setting [4]).

Take `CCOC(=O)c1[nH]c2ncccc2c1/N=N/N1CCC(C)CC1` [BX-SI058, Ethyl (E)-3-((4-methylpiperidin-1-yl)diazenyl)-1H-pyrrolo[2,3-b]pyridine-2-carboxylate]: the IC50 in data set [1] turned out to be 12 µg/mL (≈ 38 µM). For the same compound, the “MIC Range Against 8 MRSA Strains” value in the data set with MRSA clinical isolates is listed as 1 mg/L (≈ 3.17 µM). The solubility at 5 min in data set [2] (setting [3]) came to 0.399 µg/mL; in data set [2] (setting [4]) it was 1 µM.

On to `CC(C)NCC(O)COc1cccc2ccccc12` (stereo not drawn) [Propranolol, propranolol], for which the “Papp A-B” value in the data set on Caco-2 cells (Caco-2, 1 µM, 2 h) is listed as 44.6 10^-6 sm/s. This compound also came in with a Mass balance in the data set on Caco-2 cells (setting [5]) of 91.7%.

For the compound `CNC(=C[N+](=O)[O-])NCCSCc1ccc(CN(C)C)o1` [Ranitidine, ranitidine], the “Papp A-B” value with Caco-2 cells (Caco-2, 1 µM, 2 h) is on record as 1.48 10^-6 sm/s. This compound also registered a Mass balance in the data set with Caco-2 cells (setting [5]) of 96%.

The compound rhodamine gave an Asymmetry index in the data set with Caco-2 cells (Caco-2) of 3.20. Further, the “Papp A-B” value with Caco-2 cells (Caco-2, 1 µM, 2 h) was 1.14 10^-6 sm/s. In addition, the “Papp B-A” value in the data set with Caco-2 cells (Caco-2, 1 µM, 2 h) is listed as 3.65 10^-6 sm/s. Further, the Mass balance with Caco-2 cells (setting [5]) was determined as 92.1%; with Caco-2 cells (Caco-2, second value: B-A / basolateral), 95.8%.
